The structures appear in SMILES notation. Structures can show the parent of a compound that is named as a salt.

The target of the first assay is T1, α7 nAChR (Rattus norvegicus, UniProt Q05941).
T1 construct: brains (whole brain minus cerebellum) are dissected quickly, weighed and homogenized; from tissue; host or cells: rat brain (whole brain minus cerebellum) membrane homogenate
T1 sequence (Q05941 23-502): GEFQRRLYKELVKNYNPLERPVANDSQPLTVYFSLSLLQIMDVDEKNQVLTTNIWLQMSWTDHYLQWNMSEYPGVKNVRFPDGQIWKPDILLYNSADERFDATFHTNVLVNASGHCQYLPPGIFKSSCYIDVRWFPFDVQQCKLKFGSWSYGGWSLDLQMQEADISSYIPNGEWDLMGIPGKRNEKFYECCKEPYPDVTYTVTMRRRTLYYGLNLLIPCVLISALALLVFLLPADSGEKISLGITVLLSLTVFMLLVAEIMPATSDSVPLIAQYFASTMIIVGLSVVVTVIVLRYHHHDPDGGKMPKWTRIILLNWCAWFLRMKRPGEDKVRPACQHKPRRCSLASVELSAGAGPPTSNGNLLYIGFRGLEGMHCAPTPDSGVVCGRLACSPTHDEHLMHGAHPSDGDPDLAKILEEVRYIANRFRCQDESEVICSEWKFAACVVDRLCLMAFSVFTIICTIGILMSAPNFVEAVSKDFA
Briefly: [3H]-MLA competition binding assay in rat brain membranes.
Details: not given
The procedure:
Materials and Methods for Identifying Binding Constants:
Membrane Preparation. Male Sprague-Dawley rats (300–350 g) are sacrificed by decapitation and the brains (whole brain minus cerebellum) are dissected quickly, weighed and homogenized in 9 volumes/g wet weight of ice-cold 0.32M sucrose using a rotating pestle on setting 50 (10 up and down strokes). The homogenate is centrifuged at 1,000×g for 10 minutes at 4° C. The supernatant is collected and centrifuged at 20,000×g for 20 minutes at 4° C. The resulting pellet is resuspended to a protein concentration of 1–8 mg/mL. Aliquots of 5 mL homogenate are frozen at −80° C. until needed for the assay. On the day of the assay, aliquots are thawed at room temperature and diluted with Kreb's—20 mM Hepes buffer pH 7.0 (at room temperature) containing 4.16 mM NaHCO3, 0.44 mM KH2PO4, 127 mM NaCl, 5.36 mM KCl, 1.26 mM CaCl2, and 0.98 mM MgCl2, so that 25–150 μg protein are added per test tube. Proteins are determined by the Bradford method (Bradford, M. M., Anal. Biochem., 72, 248–254, 1976) using bovine serum albumin as the standard.
Binding Assay. For saturation studies, 0.4 mL homogenate are added to test tubes containing buffer and various concentrations of radioligand, and are incubated in a final volume of 0.5 mL for 1 hour at 25° C. Nonspecific binding was determined in tissues incubated in parallel in the presence of 1 μM MLA, added before the radioligand. In competition studies, drugs are added in increasing concentrations to the test tubes before addition of approximately 3.0 to 4.0 nM [^3H]-MLA. The incubations are terminated by rapid vacuum filtration through Whatman GF/B glass filter paper mounted on a 48 well Brandel cell harvester. Filters are pre-soaked in 50 mM Tris HCl pH 7.0–0.05% polyethylenimine. The filters are rapidly washed two times with 5 mL aliquots of cold 0.9% saline and then counted for radioactivity by liquid scintillation spectrometry.
Data Analysis. In competition binding studies, the inhibition constant (Ki) was calculated from the concentration dependent inhibition of [^3H]-MLA binding obtained from non-linear regression fitting program according to the Cheng-Prusoff equation (Cheng, Y. C. and Prussoff, W. H., Biochem. Pharmacol., 22, p. 3099–3108, 1973). Hill coefficients were obtained using non-linear regression (GraphPad Prism sigmoidal dose-response with variable slope).
For orientation: Ki means a measure of affinity in units of concentration, obtained from inhibition or displacement. Molecule `O=C(N[C@H]1CN2CCC1CC2)c1cc2c(cn1)OCC2` [Example 1, N-[(3R)-1-azabicyclo[2.2.2]oct-3-yl]-2,3-dihydrofuro[2,3-c]pyridine-5-carboxamide dihydrochloride] yielded a Ki of 50 to 60 nM. As for `Cc1cc2cc(C(=O)N[C@H]3CN4CCC3CC4)ncc2o1` [Example 6, N-[(3R)-1-azabicyclo[2.2.2]oct-3-yl]-2-methylfuro[2,3-c]pyridine-5-carboxamide dihydrochloride], the Ki was 119 nM.

`Cc1coc2cnc(C(=O)N[C@H]3CN4CCC3CC4)cc12` [Example 9, N-[(3R)-1-azabicyclo[2.2.2]oct-3-yl]-3-methylfuro[2,3-c]pyridine-5-carboxamide] came in with a Ki of 1 to 6 nM. In turn, `O=C(N[C@H]1CN2CCC1CC2)c1cc2cccnc2s1` [Example 13, N-((3R)-1-azabicyclo[2.2.2]oct-3-yl)thieno[2,3-b]pyridine-2-carboxamide dihydrochloride] showed a Ki of 108 nM.

For the molecule `O=C(N[C@H]1CN2CCC1CC2)c1cc2ccncc2s1` [Example 17, N-[(3R)-1-azabicyclo[2.2.2]oct-3-yl]thieno[2,3-c]pyridine-2-carboxamide dihydrochloride], the Ki came out at 65 nM. Take `O=C(N[C@H]1CN2CCC1CC2)c1ccc2sccc2n1` [Example 19, N-[(3R)-1-azabicyclo[2.2.2]oct-3-yl]thieno[3,2-b]pyridine-5-carboxamide dihydrochloride]: the affinity corresponds to a Ki of 274 nM.

With `O=C(N[C@H]1CN2CCC1CC2)c1cnc2ccsc2c1` [Example 20, N-[(3R)-1-azabicyclo[2.2.2]oct-3-yl]thieno[3,2-b]pyridine-6-carboxamide dihydrochloride], the inhibitory constant (Ki) is 952 nM. On to `O=C(N[C@H]1CN2CCC1CC2)c1cc2ccsc2cn1` [Example 22, N-[(3R)-1-azabicyclo[2.2.2]oct-3-yl]thieno[2,3-c]pyridine-5-carboxamide dihydrochloride], for which the inhibition constant (Ki) came out at 5 nM. The same measure, in the same setting: under `O=C(N[C@H]1CN2CCC1CC2)c1cc2c(Cl)coc2cn1` [Example 28, N-[(3R)-1-Azabicyclo[2.2.2]oct-3-yl]-3-chlorofuro[2,3-c]pyridine-5-carboxamide dihydrochloride] stands 3 nM. `O=C(N[C@H]1CN2CCC1CC2)c1cc2c(Br)coc2cn1` [Example 29, N-[(3R)-1-Azabicyclo[2.2.2]oct-3-yl]-3-bromofuro[2,3-c]pyridine-5-carboxamide] returned a Ki of 4 nM.

Molecule `O=C(N[C@H]1CN2CCC1CC2)c1cc2occc2cn1` [Example 30, N-[(3R)-1-Azabicyclo[2.2.2]oct-3-yl]furo[3,2-c]pyridine-6-carboxamide dihydrochloride] registered a Ki of 45 nM. As to `O=C(N[C@H]1CN2CCC1CC2)c1cc2c(Br)csc2cn1` [Example 31, N-[(3R)-1-azabicyclo[2.2.2]oct-3-yl]-3-bromothieno[2,3-c]pyridine-5-carboxamide], the affinity corresponds to a Ki of 9 nM. As for `C[C@H]1[C@H](NC(=O)c2cc3ccoc3cn2)C2CCN1CC2` [Example 33, N-[(2S,3R)-2-methyl-1-azabicyclo[2.2.2]oct-3-yl]furo[2,3-c]pyridine-5-carboxamide dihydrochloride], the affinity corresponds to a Ki of 15 nM. On the same count and under the same terms, under `Cc1coc2cnc(C(=O)N[C@@H]3C4CCN(CC4)[C@H]3C)cc12` [Example 34, 3-methyl-N-[(2S,3R)-2-methyl-1-azabicyclo[2.2.2]oct-3-yl]furo[2,3-c]pyridine-5-carboxamide dihydrochloride] stands 15 nM; under `C[C@H]1[C@H](NC(=O)c2cc3ccsc3cn2)C2CCN1CC2` [Example 35, N-[(2S,3R)-2-methyl-1-azabicyclo[2.2.2]oct-3-yl]thieno[2,3-c]pyridine-5-carboxamide dihydrochloride], 18 nM. `C[C@H]1[C@H](NC(=O)c2cc3sccc3cn2)C2CCN1CC2` [Example 36, N-[(2S,3R)-2-methyl-1-azabicyclo[2.2.2]oct-3-yl]thieno[3,2-c]pyridine-6-carboxamide dihydrochloride] registered a Ki of 12 nM. In turn, `O=C(N[C@H]1CN2CCC1CC2)c1cc2cscc2cn1` [Example 40, N-[(3R)-1-azabicyclo[2.2.2]oct-3-yl]thieno[3,4-c]pyridine-6-carboxamide methanesulfonate] returned an inhibitory constant (Ki) of 25 nM.

Still in this assay, the particulars now being: competition with approximately 3.0 to 4.0 nM [3H]-MLA, rat brain (whole brain minus cerebellum) homogenate, 1 hour at 25° C, Cheng-Prusoff; read-out: Ki Value.
For `O=C(N[C@H]1CN2CCC1CC2)c1cc2cnccc2o1` [Example 2, N-[(3R)-1-azabicyclo[2.2.2]oct-3-yl]furo[3,2-c]pyridine-2-carboxamide], the Ki was 1300 nM.

With `O=C(N[C@H]1CN2CCC1CC2)c1cc2ccoc2c(Cl)n1` [Example 3, N-[(3R)-1-azabicyclo[2.2.2]oct-3-yl]-7-chlorofuro[2,3-c]pyridine-5-carboxamide hydrochloride], the Ki stood at 2250 nM. The same measure, in the same setting: under `O=C(N[C@H]1CN2CCC1CC2)c1cc2ccoc2cn1` [Example 4, N-[(3R)-1-azabicyclo[2.2.2]oct-3-yl]furo[2,3-c]pyridine-5-carboxamide dihydrochloride] stands 9 to 10 nM; under `O=C(N[C@H]1CN2CCC1CC2)c1cc2cnccc2s1` [Example 21, N-[(3R)-1-azabicyclo[2.2.2]oct-3-yl]thieno[3,2-c]pyridine-2-carboxamide dihydrochloride], 269 nM; under `O=C(N[C@H]1CN2CCC1CC2)c1cc2sccc2cn1` [Example 23, N-[(3R)-1-azabicyclo[2.2.2]oct-3-yl]thieno[3,2-c]pyridine-6-carboxamide dihydrochloride], 5 nM.
